Results on 2 sequences are retold here after patent publication US20140341846A1, “METHODS OF INHIBITING PHOTORECEPTOR APOPTOSIS” (The Regents of The University of Michigan, priority 2009, published 2014).

“Also recorded” adds a separate entry of the source.

One test deals with caspase 3. As to the kind of experiment: Caspase 3 activity in detached retinas (Met study). The test is classed as in vivo, Brown Norway rats. To be noted: 50 μg subretinal. As to the method:
(§1) Retinal-RPE separation was created in Brown Norway rats by subretinal injection of 1% hyaluronic acid. Met12, derived from the Fas-binding extracellular domain of the oncoprotein Met, was injected into the subretinal space at the time of separation. […] Extrinsic apoptotic pathway was induced in 661W cells using a Fas-activating antibody in the presence or absence of Met12. Caspase 3, caspase 8, and caspase 9 activities were measured with calorimetric and luminescent assays in retinal extracts and cell lysates. Terminal deoxynucleotidyl transferase dUTP nick-end labeling (TUNEL) was performed in retinal sections 3 days after separation. Histology was performed in retinal sections 2 months after retinal detachment.
(§2) Rodents were anesthetized with a 50:50 mix of ketamine (100 mg/mL) and xylazine (20 mg/mL), and pupils were dilated with topical phenylephrine (2.5%) and tropicamide (1%). A 20-gauge microvitreoretinal blade (Walcott Scientific, Marmora, N.J.) was used to create a sclerotomy 2 mm posterior to the limbus, carefully avoiding lens damage. […]
(§3) Caspase 3, caspase 8 and caspase 9 activities were measured with colorimetric tetrapeptide cleavage assay kits, per the manufacturer's instructions (Bio-Vision, Mountain View, Calif.). […] Absorbance was measured at 405 nm in a microplate reader (Spectra-MAX 190, Molecular Devices, Sunnyvale, Calif.). […]

Test [1] deals with Fas-mediated caspase 8 activation in 661W cells. The test is described as follows: Fas-Ab induced caspase 8 activity in 661W cells. The test is classed as cell-based. To be noted: 500 ng/ml Fas-Ab, 48 hours after treatment. As to the method:
The 661W cell line was maintained in Dulbecco's modified Eagle's medium containing 10% fetal bovine serum, 300 mg/L glutamine, 32 mg/L putrescine, 40 μL/L of β-mercaptoethanol, and 40 μg/L of both hydrocortisone 21-hemisuccinate and progesterone. The media also contained penicillin (90 units/ml) and streptomycin (0.09 mg/ml). Cells were grown at 37° C. in a humidified atmosphere of 5% CO2 and 95% air.
In cell culture experiments, caspase 8 activity was measured by a commercially available luminescent tetrapeptide (LETD) cleavage assay kit (Promega, Madison, Wis.). The 661W cells were seeded in 96-well plates (Nunc, Rochester, N.Y.) at 1500 cells/well for 24 hours prior to treatment. Cells were pre-treated with various concentrations of Met12, mMet, or vehicle for 1 hour prior to treatment with 500 ng/ml of Fas-agonistic Jo2 monoclonal antibody (BD Biosciences, San Jose, Calif.). Caspase 8 activity was measured at various time points by incubating the cells with the pro-luminescent substrate in 96-well plates following manufacturer's instructions. Controls included untreated cells and wells with no cells. Luminescence was measured in a plate reader luminometer (Turner Biosystems, Sunnyvale Calif.).

The test system of another test is caspase 9. As to the kind of experiment: Caspase 9 activity in detached retinas (Met study). The test is classed as in vivo, Brown Norway rats. The settings on record: 50 μg subretinal. As to the method: as §1, §2, §3
The next test relates to caspase 8. As to the kind of experiment: Caspase 8 activity in detached retinas (Met study). It counts as in vivo, Brown Norway rats. The settings on record: 50 μg subretinal at time of detachment; 24 hours after detachment. As to the method: as §1, §2, §3
In test [2] the test system is photoreceptors (outer nuclear layer). As to the kind of experiment: ONL cell counts and thickness 2 months after retinal detachment (Met study). It counts as in vivo, Brown Norway rats. The settings on record: 50 μg subretinal at time of detachment; after 2 months of retinal detachment. As to the method:
as §1
(§4) Rodents were anesthetized with a 50:50 mix of ketamine (100 mg/mL) and xylazine (20 mg/mL), and pupils were dilated with topical phenylephrine (2.5%) and tropicamide (1%). […]
(§5) Photoreceptor cell apoptosis was quantified as the percentage of total cells in the outer nuclear layer (ONL) that were TUNEL positive. […] The total number of cells in the ONL was measured in a similar fashion. The total thickness of the retina (measured from the outer edge of the ONL to the inner limiting membrane) was measured in three places in each of three non-overlapping high power fields (40×) at the maximal height of the retinal detachment per section and averaged for each eye. […]

For test [3] the test system is unchanged. The test is described as follows: TUNEL staining 3 days after retinal detachment (Met study). It counts as in vivo, Brown Norway rats. To be noted: 50 μg subretinal. As to the method: as §1, §4, §5
For another test, the system named is Jurkat cells. To be noted: Jurkat cells (Zou et al. Nat Med. 2007); cited from earlier work.

For HHGSDHERNYIY [mMet, reference compound], the “effect on caspase 3 activity level in detached retinas” value in the test on caspase 3 (24 hours after detachment) is reported as “did not affect”. Further, the “effect on Fas-Ab induced caspase 8 activation” value in test [1] is reported as “no effect”. Moreover, in the test with caspase 9 (24 hours after detachment), the “effect on caspase 9 activity level in detached retinas” value was “did not affect”. Also, the “caspase 8 activity in detached retinas compared to attached retinas” value with caspase 8 was “significantly increased”.
As to HHIYLGAVNYIY [Met12], in test [2], the “increase in ONL cell counts compared with mMet-injected retinas” value is on record as 37% and the “increase in ONL thickness measurements compared with mMet-injected retinas” value is listed as 27%. Further, in the test on caspase 3 (after 24 hours), the “reduction of caspase 3 activity in detached retinas” value is “approximately 50%”. In test [1], the “effect on Fas-Ab induced caspase 8 activation” value is “inhibited by Met12 treatment in a dose dependent manner; also recorded: full inhibition”. The “reduction of caspase 9 activity in detached retinas” value with caspase 9 (after 24 hours) is “approximately 50%”. In the test with caspase 8, the “reduction of caspase 8 activity in detached retinas” value was “approximately 50%”. Besides, the “fewer TUNEL-positive photoreceptors as compared with mMet-injected separated retinas” value in test [3] is about 77%. Also, the “protection from FasL induced apoptosis” value in the test on Jurkat cells was “protects”.
